Structures can show the parent of a compound that is named as a salt.
Molecular target: T1, human EP3 receptor (Homo sapiens, UniProt P43115)
T1 construct: expressed in transfected cells; host or cells: CHO K1 (Chinese Hamster Ovary), stably co-transfected with Galpha16 and mitochondrial clytin
T1 sequence (P43115 1-390): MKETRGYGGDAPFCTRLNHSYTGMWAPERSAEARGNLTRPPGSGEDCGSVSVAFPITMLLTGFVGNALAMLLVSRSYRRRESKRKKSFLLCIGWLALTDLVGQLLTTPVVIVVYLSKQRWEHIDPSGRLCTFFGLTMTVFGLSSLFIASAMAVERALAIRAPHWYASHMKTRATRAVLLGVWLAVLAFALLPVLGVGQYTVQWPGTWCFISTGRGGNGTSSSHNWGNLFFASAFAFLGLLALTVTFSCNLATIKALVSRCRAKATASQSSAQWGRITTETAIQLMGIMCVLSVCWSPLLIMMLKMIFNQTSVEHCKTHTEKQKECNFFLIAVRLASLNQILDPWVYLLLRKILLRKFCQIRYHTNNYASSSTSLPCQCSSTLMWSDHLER
Test: Cellular in vitro assay for determining EP3 receptor activity (human EP3 cell line, sulprostone-stimulated calcium luminescence)
Type: cell-based
Settings: CHO cells expressing human EP3 and mitochondrial Clytin; antagonist mode, sulprostone at EC50; read-out: EP3 CHO mtCLY ANTAG IC50
Procedure, shortened: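 CHO K1 cells stably expressing human EP3 with Gα16 and mitochondrial Clytin, loaded overnight with coelenterazine. Compounds added 10 min before sulprostone at its EC50; antagonism read immediately as reduced calcium-driven luminescence, quadruplicate points.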

Going from O=C(NCc1cc(F)cc(F)c1)c1cc2c(=O)[nH]c(-c3ccc4ccccc4c3)cn2n1 [Example 2-31, N-(3,5-Difluorbenzyl)-6-(2-naphthyl)-4-oxo-4,5-dihydropyrazolo[1,5-a]pyrazine-2-carboxamide] to COc1ccc(CCNC(=O)c2cc3c(=O)[nH]c(-c4ccc5ccccc5c4)cn3n2)cc1OC [6-75], the IC50 rises from 2.55 nM to 8.63 nM (3.4-fold).

Compared with O=C(NC(CN1CCOCC1)c1ccc(F)cc1)c1cc2c(=O)[nH]c(-c3ccc4ccccc4c3)cn2n1 (centres unmarked) [Example 1-40, N-[1-(4-Fluorophenyl)-2-morpholinoethyl]-6-(2-naphthyl)-4-oxo-5H-pyrazolo[1,5-a]pyrazine-2-carboxamide], O=C(NC1(c2ccc(F)cc2)COC1)c1cc2c(=O)[nH]c(-c3ccc4ccccc4c3)cn2n1 [6-56] is 11-fold lower in IC50: 8.27 nM for the first, 0.74 nM for the second.

Going from Cc1ccc(-c2cn3nc(C(=O)N[C@H](CCO)c4ccc(F)cc4)cc3c(=O)[nH]2)cc1Cl [6-122] to Cc1ccc(-c2cn3nc(C(=O)N[C@H](CCO)c4ccc(F)cc4)c(C(F)(F)F)c3c(=O)[nH]2)cc1Cl [6-196], the IC50 falls from 0.88 nM to 0.29 nM (3-fold). The second is the more potent here.

O=C(N[C@@H](c1ccc(F)cc1)C(F)(F)CO)c1nn2cc(-c3ccc(Cl)c(Cl)c3)[nH]c(=O)c2c1C1CC1 [6-421] and Cc1ccc(-c2cn3nc(C(=O)N[C@@H](c4ccc(F)cc4)C(F)(F)CO)c(C4CC4)c3c(=O)[nH]2)cc1F [6-375] are within 1.5-fold of each other in IC50: 1.49 nM for the first, 1.07 nM for the second.

Compared with Cc1cccc2ncc(-c3cn4nc(C(=O)NC5CCOc6ccccc65)c(C(C)C)c4c(=O)[nH]3)cc12 (centres unmarked) [Example 4-65, N-(3,4-Dihydro-2H-chromen-4-yl)-3-isopropyl-6-(5-methylquinolin-3-yl)-4-oxo-4,5-dihydropyrazolo[1,5-a]pyrazine-2-carboxamide], Cc1cccc2ncc(-c3cn4nc(C(=O)NC5CCc6ccccc65)c(C(C)C)c4c(=O)[nH]3)cc12 (centres unmarked) [Example 4-72, N-(2,3-Dihydro-1H-inden-1-yl)-3-isopropyl-6-(5-methylquinolin-3-yl)-4-oxo-4,5-dihydropyrazolo[1,5-a]pyrazine-2-carboxamide] is 5.3-fold higher in IC50: 1.15 nM for the first, 6.05 nM for the second. The first is the more potent here.

CC(C)C(NC(=O)c1nn2cc(-c3ccc4ccccc4c3)[nH]c(=O)c2c1C#N)c1ccc(F)cc1 (centres unmarked) [Example 3-59, 3-Cyano-N-[1-(4-fluorophenyl)-2-methylpropyl]-6-(2-naphthyl)-4-oxo-5H-pyrazolo[1,5-a]pyrazine-2-carboxamide] and Cc1ccc(C(C)NC(=O)c2cc3c(=O)[nH]c(-c4ccc5ccccc5c4)cn3n2)cc1 (centres unmarked) [Example 2-44, N-[1-(4-Methylphenyl)ethyl]-6-(2-naphthyl)-4-oxo-4,5-dihydropyrazolo[1,5-a]pyrazine-2-carboxamide] are within 1.5-fold of each other in IC50: 1.25 nM for the first, 1.3 nM for the second.

Cc1ccc([C@H](C)NC(=O)c2nn3c(C)c(-c4ccc5ccccc5c4)[nH]c(=O)c3c2C)cc1 [Example 3-20, 3,7-Dimethyl-N-[(7S)-1-(4-methylphenyl)ethyl]-6-(naphthalen-2-yl)-4-oxo-4,5-dihydropyrazolo[1,5-a]pyrazine-2-carboxamide] and Cc1c(C(=O)NC(C)c2ccc(Cl)c(Cl)c2)nn2c(C)c(-c3ccc4ccccc4c3)[nH]c(=O)c12 (centres unmarked) [Example 3-16, N-[1-(3,4-Dichlorophenyl)ethyl]-3,7-dimethyl-6-(2-naphthyl)-4-oxo-5H-pyrazolo[1,5-a]pyrazine-2-carboxamide] are within 1.5-fold of each other in IC50: 8 nM for the first, 7.2 nM for the second.

Cc1cccc2ncc(-c3cn4nc(C(=O)NCc5cccc(CN(C)C)c5)c(C(C)C)c4c(=O)[nH]3)cc12 [Example 4-2, N-({3-[(Dimethylamino)methyl]phenyl}methyl)-6-(5-methylquinolin-3-yl)-4-oxo-3-(propan-2-yl)-4,5-dihydropyrazolo[1,5-a]pyrazine-2-carboxamide] and Cc1cccc2ncc(-c3cn4nc(C(=O)NCCCS(C)(=O)=O)c(C(C)C)c4c(=O)[nH]3)cc12 [Example 4-35, N-[3-(Methansulfonyl)propyl]-6-(5-methylquinolin-3-yl)-4-oxo-3-(propan-2-yl)-4,5-dihydropyrazolo[1,5-a]pyrazine-2-carboxamide] are within 1.5-fold of each other in IC50: 2.8 nM for the first, 1.9 nM for the second.

Cc1ccc(-c2cn3nc(C(=O)NC(c4ccccc4)C(O)C(F)(F)F)cc3c(=O)[nH]2)cc1C (centres unmarked) [6-350] and COc1ccc(C(C)NC(=O)c2cc3c(=O)[nH]c(-c4ccc5ccccc5c4)cn3n2)cc1OC (centres unmarked) [Example 2-55, N-[1-(3,4-Dimethoxyphenyl)ethyl]-6-(2-naphthyl)-4-oxo-4,5-dihydropyrazolo[1,5-a]pyrazine-2-carboxamide] are within 1.5-fold of each other in IC50: 0.78 nM for the first, 1.15 nM for the second.

First: Cc1ccc(-c2cn3nc(C(=O)NC(c4ccc(F)cc4)C(C)(C)O)c(C4CC4)c3c(=O)[nH]2)cc1F (racemic) [6-402]
Second: Cc1cc(-c2cn3nc(C(=O)N[C@@H](c4ccc(F)cc4)C(C)(C)O)c(C4CC4)c3c(=O)[nH]2)ccc1C(F)(F)F [Example 1-132, 3-Cyclopropyl-N-[(1S)-1-(4-fluorophenyl)-2-hydroxy-2-methylpropyl]-6-[3-methyl-4-(trifluoromethyl)phenyl]-4-oxo-4,5-dihydropyrazolo[1,5-a]pyrazine-2-carboxamide]
The IC50 of the first is 4.9-fold lower: 0.82 nM for the first, 4.05 nM for the second. The first is the more potent here.

First: Cc1c(C(=O)NC(CCO)c2ccccc2Cl)nn2c(C)c(-c3ccc4ccccc4c3)[nH]c(=O)c12 (centres unmarked) [Example 3-68, N-[1-(2-Chlorophenyl)-3-hydroxypropyl]-3,7-dimethyl-6-(2-naphthyl)-4-oxo-5H-pyrazolo[1,5-a]pyrazine-2-carboxamide]
Second: Cc1c(C(=O)NC(CO)c2cc(Cl)cc(Cl)c2)nn2c(C)c(-c3ccc4ccccc4c3)[nH]c(=O)c12 (centres unmarked) [Example 3-40, N-[1-(3,5-Dichlorophenyl)-2-hydroxyethyl]-3,7-dimethyl-6-(2-naphthyl)-4-oxo-5H-pyrazolo[1,5-a]pyrazine-2-carboxamide]
The IC50 of the first is 4.1-fold lower: 1.85 nM for the first, 7.6 nM for the second. The first is the more potent here.

Compared with CC(C)(O)[C@@H](NC(=O)c1nn2cc(-c3ccc(Cl)c(OC(F)(F)F)c3)[nH]c(=O)c2c1C1CC1)c1ccc(F)cc1 [6-592], O=C(NC(c1ccc(F)cc1)C1(O)CC1)c1nn2cc(-c3ccc(Cl)c(F)c3)[nH]c(=O)c2c1C1CC1 (single isomer, unassigned) [6-97] is 1.8-fold higher in IC50: 1.85 nM for the first, 3.25 nM for the second.

First: O=C(NC1CCN(C2CC2)C1)c1nn2cc(-c3ccc4ccccc4c3)[nH]c(=O)c2c1C(F)(F)F (single isomer, unassigned) [6-501]
Second: CCn1cc(CNC(=O)c2nn3cc(-c4ccc5ccccc5c4)[nH]c(=O)c3c2C(F)(F)F)c(C)n1 [6-496]
The IC50 of the first is 4.8-fold higher: 5.7 nM for the first, 1.2 nM for the second.

CCN1CC(NC(=O)c2nn3cc(-c4ccc5ccccc5c4)[nH]c(=O)c3c2C(F)(F)F)(c2ccc(F)cc2)C1 [Example 1-126, N-[1-Ethyl-3-(4-fluorophenyl)azetidin-3-yl]-6-(naphthalen-2-yl)-4-oxo-3-(trifluoromethyl)-4,5-dihydropyrazolo[1,5-a]pyrazine-2-carboxamide] and CCN1CC(NC(=O)c2cc3c(=O)[nH]c(-c4ccc5ccccc5c4)cn3n2)(c2ccc(F)cc2)C1 [Example 1-145, N-[3-(4-Fluorophenyl)-1-ethylazetidin-3-yl]-6-(naphthalen-2-yl)-4-oxo-4,5-dihydropyrazolo[1,5-a]-pyrazine-2-carboxamide formic acid salt] are within 1.5-fold of each other in IC50: 5.1 nM for the first, 7.05 nM for the second.

Compared with CC[C@H](C)NC(=O)c1nn2cc(-c3ccc(C)c(Cl)c3)[nH]c(=O)c2c1C1CC1 [6-282], CCN1CCC(NC(=O)c2nn3cc(-c4ccc(Cl)c(C)c4)[nH]c(=O)c3c2C2CC2)(C(F)(F)F)C1 (single isomer, unassigned) [6-293] is 3.6-fold higher in IC50: 1.6 nM for the first, 5.7 nM for the second. The first is the more potent here.

First: O=C(N[C@H]1c2ccccc2C[C@@H]1O)c1cc2c(=O)[nH]c(-c3ccc4ccccc4c3)cn2n1 [6-73]
Second: COC[C@H](Cc1ccccc1)NC(=O)c1cc2c(=O)[nH]c(-c3ccc4ccccc4c3)cn2n1 [Example 2-25, N-[(2S)-1-Methoxy-3-phenylpropan-2-yl]-6-(2-naphthyl)-4-oxo-4,5-dihydropyrazolo[1,5-a]pyrazine-2-carboxamide]
The IC50 of the first is 2.9-fold higher: 8.3 nM for the first, 2.9 nM for the second.

Going from O=C(N[C@H](CN1CCOCC1)c1ccc(F)cc1)c1nn2cc(-c3ccc(Cl)c(F)c3)[nH]c(=O)c2c1C1CC1 [6-106] to Cc1cc(-c2cn3nc(C(=O)NC4(c5ccccc5)CCOCC4)c(C4CC4)c3c(=O)[nH]2)ccc1Cl [6-342], the IC50 rises from 0.61 nM to 1.07 nM (1.8-fold).

First: Cc1ccc(-c2cn3nc(C(=O)NCC(O)C(F)(F)F)c(C4CC4)c3c(=O)[nH]2)cc1C(F)(F)F (single isomer, unassigned) [6-245]
Second: Cc1ccc(-c2cn3nc(C(=O)NCC(O)C(F)(F)F)c(C(F)(F)F)c3c(=O)[nH]2)cc1Cl (single isomer, unassigned) [6-159]
The IC50 of the first is 1.7-fold lower: 1.35 nM for the first, 2.3 nM for the second.

COc1ccc(C(C)NC(=O)c2nn3c(C)c(-c4ccc5ccccc5c4)[nH]c(=O)c3c2C)cc1F (centres unmarked) [Example 3-74, N-[1-(3-Fluoro-4-methoxyphenyl)ethyl]-3,7-dimethyl-6-(2-naphthyl)-4-oxo-5H-pyrazolo[1,5-a]pyrazine-2-carboxamide] and COc1ccc([C@@H](NC(=O)c2nn3cc(-c4ccc(C)c(F)c4)[nH]c(=O)c3c2C2CC2)C(F)(F)CO)cn1 [6-400] are within 1.5-fold of each other in IC50: 4.8 nM for the first, 3.65 nM for the second.

Going from CC(C)c1c(C(=O)NC2(c3ccc(F)cc3)CN(C)C2)nn2cc(-c3ccc(Cl)c(F)c3)[nH]c(=O)c12 [6-538] to Cc1ccc(-c2cn3nc(C(=O)NC4(c5ccc(F)cc5)CN(C5CC5)C4)c(C(F)(F)F)c3c(=O)[nH]2)cc1Cl [6-203], the IC50 falls from 2.77 nM to 1.5 nM (1.8-fold). The second is the more potent here.

C[C@@H](NC(=O)c1nn2cc(-c3cc(F)c(Cl)c(F)c3)[nH]c(=O)c2c1C1CC1)C1CC1 [6-473] showed an IC50 of 3.3 nM.

From patent US20220324865A1 (Bayer Aktiengesellschaft, priority 2018, published 2022)
